Test results taken from patent US8252832B2, “Kinesin inhibitors as cancer therapeutics” (Novartis AG, priority 2007, dated 2012).
Where two headings read alike, the source gives them in different places.

Columns and labels:
Assay in all cases: CellTiter-Glo, hematologic malignancy panel
Type in all cases: cell-based
AML-193 = system: AML-193
Source text: (§1) Identification of tumor types that are the most sensitive to the KSP inhibitors of the present invention can be accomplished using an unbiased approach that uses several cell-based assays. The assays chosen were as follows: • CellTiter-Glo®. This is an assay designed to measure ATP concentration in a cell culture, and can be correlated to cell number. Briefly CellTiter-Glo® (Promega Corporation) is a homogeneous method using the single CellTiter-Glo® reagent to detect ATP wherein ATP in the assay drives the activity of a thermostable luciferase to create a luminescent signal which can then be measured and correlated with the number of viable cells. Briefly, for adherent cells, 1,000 to 5,000 cells/well were plated in 96-well plates (100 μl/well) and let to adhere for 24 hours before being treated with drug. For non-adherent cells, 1,000 to 10,000 cells/well were plated in 96-well plates (100 μl/well) and immediately treated with drug. Drug dilutions were prepared in DMSO at 1000 times the final concentration. These dilutions were then diluted 1/100 in growth media before being added to the cells (11 μl/well) to achieve the desired final concentration. After 48 h in a 37° C. tissue culture incubator, the plates were processed for the CellTiter-Glo®assay according to the manufacturer's instructions. Protocol for a 72 hour cell proliferation assay: The 72 hour assay was performed the same way as the 48 hour assay except for the following modifications: For adherent cells, 500 to 5,000 cells/well were plated in 96-well plates (90 μl/well cell growth media) and left to adhere for 24 hours before being treated with drug. For non-adherent cells, 1,000 to 10,000 cells/well were plated in 96-well plates (90 μl/well cell growth media) and immediately treated with drug. Data values presented represent the concentration of test compound required for a 50% reduction in growth. • LDH release. The Cytotoxicity Detection KitPLUS (LDH) assay (Roche Diagnostics, Manheim, Germany) measures the amount of LDH released in the media by dying cells; LDH catalyzes the conversion of lactate into pyruvate. The enzymatic reaction is coupled to a chemical reaction that uses a tetrazolium salt to form a formazan that is red and can be detected by its absorbance at 490 nm. This assay measures the amount of cell death after drug treatment. Cells were plated at 10,000 cells/well in 96-well plates (100 μl/well). Adherent cells were let to adhere for 24 hours before being treated with drug, whereas non-adherent cells were immediately treated with drug. Drug dilutions were prepared in DMSO at 1000 times the final concentration. These dilutions were then diluted 1/100 in growth media before being added to the cells (11 μl/well) to achieve the desired final concentration. After 48 h in a 37° C. tissue culture incubator, the plates were processed for the Cytotoxicity Detection KitPLUS (LDH) assay according to the manufacturer's instructions. The media only values were subtracted from all the data points before analysis. Data values presented correspond to the compound concentration wherein LDH output is at half maximal level. • Caspase-Glo® 3/7. The Caspase-Glo® 3/7 Assay (Promega Corporation) is a homogeneous luminescent assay that measures caspase-3/7 activities. The assay provides a proluminescent caspase-3/7 DEVD-aminoluciferin substrate and a thermostable luciferase in a reagent optimized for caspase-3/7 activity, luciferase activity and cell lysis. Adding the single Caspase-Glo® 3/7 Reagent results in cell lysis, followed by caspase cleavage of the substrate. This liberates free aminoluciferin, which is consumed by the luciferase, generating a luminescent signal. The signal is proportional to caspase-3/7 activity. Data values presented correspond to the compound concentration wherein caspase 3/7 activity is at half maximal level. […]

H929-Luc = details: MM
Source text: as §1

H929 = details: for GI50: Homo sapiens, NCI-H929, MM
Source text: as §1

HL60 = details: for GI50: Homo sapiens, HL-60, AML
Source text: as §1

KMS11 = details: for GI50: Homo sapiens, KMS-11, MM
Source text: as §1

KMS26 = details: for GI50: KMS-26, MM
Source text: as §1

Karpas-299-Luc = details: NHL
Source text: as §1

Kasumi-1 = details: AML; for GI50: Homo sapiens
Source text: as §1

L363 = details: for GI50: Homo sapiens, L-363, MM
Source text: as §1

L428 = details: for GI50: Homo sapiens, L-428, HL
Source text: as §1

MOLT-4 = details: ALL; for GI50: Homo sapiens
Source text: as §1

RS4; 11 = details: ALL; for GI50: Homo sapiens
Source text: as §1

SR = details: NHL; for GI50: Homo sapiens
Source text: as §1

SUDHL-4 = details: for GI50: Homo sapiens, SU-DHL-4, NHL
Source text: as §1

U937 = details: for GI50: Homo sapiens, U-937, NHL
Source text: as §1

[1] = GI50 in nM, read-out: Log(GI50) (converted)

SMILES: CC(C)(C)[C@H](c1nc(-c2cc(F)ccc2F)cn1Cc1ccccc1)N(CC[C@H](N)CF)C(=O)CO [Compound IIa]
- Differential vs mean Log(GI50) (AML-193): 0.489
- GI50 (AML-193; [1]): 0.11 nM
- GI50 (AML-193; read-out: GI50): 0.11 nM
- Differential vs mean Log(GI50) (H929-Luc): −0.697
- GI50 (H929-Luc; [1]): 1.69 nM
- GI50 (H929-Luc; read-out: GI50): 1.69 nM
- GI50 (H929; [1]): 0.335 nM
- GI50 (H929; read-out: GI50): 0.34 nM
- Differential vs mean Log(GI50) (H929; MM): 0.005
- Differential vs mean Log(GI50) (HL60; AML): 0.313
- GI50 (HL60; [1]): 0.165 nM
- GI50 (HL60; read-out: GI50): 0.17 nM
- GI50 (KMS11; [1]): 0.483 nM
- GI50 (KMS11; read-out: GI50): 0.48 nM
- Differential vs mean Log(GI50) (KMS11; MM): −0.154
- GI50 (KMS26; [1]): 0.24 nM
- GI50 (KMS26; read-out: GI50): 0.24 nM
- Differential vs mean Log(GI50) (KMS26; MM): 0.150
- Differential vs mean Log(GI50) (Karpas-299-Luc): −1.775
- GI50 (Karpas-299-Luc; [1]): 20.2 nM
- GI50 (Karpas-299-Luc; read-out: GI50): 20.2 nM
- Differential vs mean Log(GI50) (Kasumi-1): −0.113
- GI50 (Kasumi-1; [1]): 0.44 nM
- GI50 (Kasumi-1; read-out: GI50): 0.44 nM
- GI50 (L363; [1]): 0.13 nM
- GI50 (L363; read-out: GI50): 0.13 nM
- Differential vs mean Log(GI50) (L363; MM): 0.416
- Differential vs mean Log(GI50) (L428; HL): −1.771
- GI50 (L428; [1]): 20 nM
- GI50 (L428; read-out: GI50): 20 nM
- Differential vs mean Log(GI50) (MOLT-4): 0.010
- GI50 (MOLT-4; [1]): 0.331 nM
- GI50 (MOLT-4; read-out: GI50): 0.33 nM
- Differential vs mean Log(GI50) (RS4; 11): 0.530
- GI50 (RS4; 11; [1]): 0.1 nM
- GI50 (RS4; 11; read-out: GI50): 0.1 nM
- GI50 (SR; [1]): 0.11 nM
- GI50 (SR; read-out: GI50): 0.11 nM
- Differential vs mean Log(GI50) (SR): 0.487
- GI50 (SUDHL-4; [1]): 0.447 nM
- GI50 (SUDHL-4; read-out: GI50): 0.45 nM
- Differential vs mean Log(GI50) (SUDHL-4; NHL): −0.120
- GI50 (U937; [1]): 0.2 nM
- GI50 (U937; read-out: GI50): 0.2 nM
- Differential vs mean Log(GI50) (U937; NHL): 0.229
